The source of these data is ChEMBL document CHEMBL1201862, “PubChem BioAssay data set” (2004).

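Dose response: 5 concentrations. Exposure: 48 h. Format: 96-well plates. Endpoint: linear interpolation; highest concentration if not reached. The concentration for 50% growth inhibition is given as GI50.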 Active and inactive are the calls of the source. Cut-off read from the data, not from the text of the source: active = GI50 up to about 1.1 µM and inactive = higher.

Among the test systems are A549; ACHN; COLO 205; DU-145; EKVX; HCT-116; HCT-15; HL-60; HT-29; IGROV-1; MDA-MB-231; OVCAR-5; SF-268; SK-MEL-28; SK-MEL-2; SK-MEL-5; SN12C; SNB-19; UACC-62; SF-539.
Holding throughout (experiment): NCI anticancer screen, dose series, 48 h

As to `CC(C)(C)OC(=O)NC(Cc1ccc(OCc2ccccc2)cn1)C(=O)NCc1ccccc1` (centres undefined), the GI50 was 36.6 µM (inactive) with A549; 31.3 µM (inactive) in the test on ACHN; 17.1 µM (inactive) in the test with COLO 205; 40.5 µM (inactive) in the test on DU-145; 26.2 µM (inactive) in the test on EKVX; 26.5 µM (inactive) in the test with HCT-116. Further, the GI50 with HCT-15 was 24.6 µM; with HL-60, 15.1 µM (inactive); in the test on HT-29, 29.9 µM (inactive); in the test with IGROV-1, 32.3 µM (inactive); in the test with MDA-MB-231, 24.6 µM (inactive); in the test on OVCAR-5 it was 38.6 µM (inactive). For the same molecule, the GI50 with SF-268 was 23.6 µM (inactive); in the test on SK-MEL-28, 31.3 µM (inactive); in the test with SK-MEL-2, 14.3 µM (inactive); in the test with SK-MEL-5 it was 13.3 µM (inactive); in the test with SN12C it was 28.1 µM (inactive); in the test with SNB-19, 49.9 µM (inactive). In the test with UACC-62, the GI50 is 14.5 µM (inactive).
Turning to `[O-]c1c[n+](CC[n+]2cc([O-])on2)no1`, the GI50 in the test with A549, in the test with ACHN, in the test on COLO 205, in the test on DU-145, with EKVX and with HCT-116 was > 100 µM (inactive) in each case. For the same molecule, the GI50 in the test with HCT-15 was over 100 µM; with HL-60 it was > 100 µM (inactive); in the test with HT-29, > 100 µM (inactive); with IGROV-1, > 100 µM (inactive); in the test on MDA-MB-231, > 100 µM (inactive); with OVCAR-5 it was > 100 µM (inactive). Also, the GI50 with SF-268, in the test on SK-MEL-28, in the test with SK-MEL-2, in the test with SK-MEL-5, in the test with SN12C and in the test with SNB-19 was > 100 µM (inactive) each time. Moreover, in the test on UACC-62, the GI50 was > 100 µM (inactive).
For the molecule `c1ccc2c(CN3CCN(Cc4c[nH]c5ccccc45)CC3)c[nH]c2c1`, the GI50 was 19.3 µM (inactive) in the test on ACHN; 5.58 µM (inactive) in the test with COLO 205; 18.3 µM (inactive) in the test with DU-145; 13.3 µM (inactive) in the test on EKVX; 14.8 µM (inactive) in the test on HCT-116; 20 µM in the test with HCT-15. Besides, the GI50 in the test on HL-60 is 17.5 µM (inactive); with HT-29, 17.5 µM (inactive); in the test with IGROV-1 it was 11.9 µM (inactive); with MDA-MB-231, 14.9 µM (inactive); in the test with OVCAR-5, 18.7 µM (inactive); in the test on SF-268 it was 17.4 µM (inactive). The GI50 in the test with SK-MEL-28 was 17.9 µM (inactive); with SK-MEL-2, 16.7 µM (inactive); in the test on SK-MEL-5, 15.2 µM (inactive); in the test on SN12C it was 17.7 µM (inactive); in the test with SNB-19 it was 21.6 µM (inactive); in the test on UACC-62 it was 16.3 µM (inactive).
For the molecule `CO[C@H]1O[C@@H]2CO[C@@H](c3ccccc3)O[C@H]2[C@@H]2C/C=C\CCC[C@@]12O`, the GI50 in the test on A549 is 26.9 µM (inactive); in the test with ACHN, 17.3 µM (inactive); in the test with COLO 205, 17.2 µM (inactive); in the test with DU-145 it was 20.7 µM (inactive); with EKVX it was 19.4 µM (inactive); in the test on HCT-116, 16.1 µM (inactive). Besides, the GI50 is 24.4 µM in the test on HCT-15; 19.8 µM (inactive) in the test with HL-60; 17.9 µM (inactive) with HT-29; 30 µM (inactive) in the test on IGROV-1; 29 µM (inactive) in the test on MDA-MB-231; 21.7 µM (inactive) with OVCAR-5. Also, the GI50 in the test on SF-268 is 21.6 µM (inactive); in the test on SK-MEL-28, 30.1 µM (inactive); in the test on SK-MEL-2, 16 µM (inactive); with SK-MEL-5, 17.8 µM (inactive); with SN12C, 17.7 µM (inactive); with SNB-19, 38.7 µM (inactive). Further, the GI50 with UACC-62 was 15.7 µM (inactive).
`O=C1N(CN2CCOCC2)CN(CN2CCOCC2)C(=O)N1Cc1ccccc1`: the GI50 in the test on A549 is 40.4 µM (inactive); with ACHN, 32.5 µM (inactive); in the test on COLO 205, 20.1 µM (inactive); in the test on DU-145 it was 24.9 µM (inactive); in the test on EKVX it was 38.5 µM (inactive); in the test on HCT-116, 22.8 µM (inactive). Moreover, the GI50 in the test on HCT-15 was 27.6 µM; with HT-29 it was 20.3 µM (inactive); in the test on IGROV-1, 24.5 µM (inactive); in the test on MDA-MB-231 it was 26.2 µM (inactive); in the test on OVCAR-5, > 100 µM (inactive); with SF-268 it was 22 µM (inactive). Moreover, the GI50 is 19.2 µM (inactive) in the test with SF-539; 19.3 µM (inactive) in the test with SK-MEL-28; 16.3 µM (inactive) in the test with SK-MEL-2; 19.4 µM (inactive) with SK-MEL-5; 23 µM (inactive) with SN12C; > 100 µM (inactive) with SNB-19. Moreover, the GI50 in the test with UACC-62 was 22.2 µM (inactive).
In the case of `CC[C@]1(Cc2ccc(OC)c(OC)c2)C=[N+]([O-])O[C@H](OCc2ccccc2)[C@@H]1OC(C)=O`, the GI50 in the test with A549 is 36.2 µM (inactive); in the test on ACHN it was 27.6 µM (inactive); with COLO 205, 17.1 µM (inactive); in the test with DU-145, 23.6 µM (inactive); in the test with EKVX, 16.5 µM (inactive); in the test on HCT-15 it was 29.8 µM. The GI50 with HL-60 is 16.6 µM (inactive); in the test on HT-29, 29.5 µM (inactive); with IGROV-1, 25.1 µM (inactive); with MDA-MB-231, 36.4 µM (inactive); in the test on OVCAR-5, 59.7 µM (inactive); with SF-268, 23.7 µM (inactive). In addition, the GI50 with SK-MEL-28 was 25.8 µM (inactive); in the test with SK-MEL-2, 23 µM (inactive); with SK-MEL-5, 27.9 µM (inactive); in the test with SNB-19, 58.3 µM (inactive); in the test with UACC-62, 26.2 µM (inactive).
For the molecule `CCOC(=O)C1=C(c2ccccc2)C12N(Cc1ccccc1)C(=O)C2(c1ccccc1)c1ccccc1` (centres undefined), the GI50 is 37.7 µM (inactive) in the test with ACHN; 25.9 µM (inactive) in the test with COLO 205; 75 µM (inactive) in the test with DU-145; 38.8 µM (inactive) in the test with EKVX; 36.4 µM (inactive) in the test with HCT-116; 30.8 µM in the test with HCT-15. The GI50 in the test with HL-60 was 34.9 µM (inactive); in the test on HT-29 it was 43.2 µM (inactive); with IGROV-1, 56.1 µM (inactive); with MDA-MB-231, 29.9 µM (inactive); with OVCAR-5, 59.8 µM (inactive); in the test on SF-268, > 100 µM (inactive). In addition, the GI50 is 45.1 µM (inactive) with SF-539; 74.3 µM (inactive) in the test on SK-MEL-28; 24 µM (inactive) in the test with SK-MEL-2; 57.8 µM (inactive) with SN12C; 96.8 µM (inactive) with SNB-19; 39.5 µM (inactive) with UACC-62.
Consider `CC(=O)OCC1OC(N2C(=S)N[C@H]([C@@H](O)[C@H](O)[C@H](O)CO)[C@H]2O)C(OC(C)=O)C(OC(C)=O)C1OC(C)=O` (some centres undefined), for which the GI50 in the test with A549, in the test with ACHN, with COLO 205, with DU-145, with EKVX and in the test on HCT-116 was > 100 µM (inactive) each time. Besides, the GI50 with HCT-15 is over 100 µM; with HT-29, > 100 µM (inactive); with IGROV-1, > 100 µM (inactive); in the test on MDA-MB-231, > 100 µM (inactive); with OVCAR-5 it was > 100 µM (inactive); in the test on SF-268 it was > 100 µM (inactive). Further, the GI50 in the test with SF-539, in the test with SK-MEL-28, in the test with SK-MEL-2, with SK-MEL-5, in the test with SN12C and in the test with SNB-19 was > 100 µM (inactive) each time. Moreover, the GI50 in the test on UACC-62 is > 100 µM (inactive).
As to `COC(=N)c1ncn(Cc2ccccc2)c1N`, the GI50 in the test on A549, in the test with ACHN, in the test on COLO 205, in the test with DU-145, in the test with EKVX and with HCT-116 was > 100 µM (inactive) each time. In addition, the GI50 is over 100 µM in the test with HCT-15; > 100 µM (inactive) in the test with HT-29; > 100 µM (inactive) in the test on IGROV-1; > 100 µM (inactive) in the test on MDA-MB-231; > 100 µM (inactive) in the test with OVCAR-5; > 100 µM (inactive) in the test on SF-268. Further, the GI50 with SF-539, with SK-MEL-28, with SK-MEL-2, in the test on SK-MEL-5, with SN12C and with SNB-19 was > 100 µM (inactive) throughout. For the same molecule, in the test on UACC-62, the GI50 was > 100 µM (inactive).
On to `CC1=CC(=O)N(n2c(C)n[nH]c2=O)C1=O`, for which the GI50 with A549, with ACHN, in the test on COLO 205, in the test on DU-145, with EKVX and in the test with HCT-116 was > 100 µM (inactive) throughout. Further, the GI50 in the test on HCT-15 is over 100 µM; in the test with HT-29 it was > 100 µM (inactive); in the test with IGROV-1 it was > 100 µM (inactive); with MDA-MB-231, > 100 µM (inactive); with OVCAR-5, > 100 µM (inactive); in the test with SF-268, > 100 µM (inactive). Also, the GI50 in the test on SF-539, in the test with SK-MEL-2, with SK-MEL-5, in the test with SN12C, in the test on SNB-19 and with UACC-62 was > 100 µM (inactive) each time.
Turning to `CC(C)(C)OC(=O)CCC1NC(=O)[C@@H]2Cc3c([nH]c4ccccc34)C(c3ccccc3)N2C1=O` (some centres undefined), the GI50 is 31.8 µM (inactive) in the test with A549; 27.9 µM (inactive) in the test with ACHN; 20.9 µM (inactive) with COLO 205; 43.7 µM (inactive) with DU-145; 36.6 µM (inactive) in the test on EKVX; 19.4 µM (inactive) in the test with HCT-116. Besides, the GI50 in the test with HCT-15 was 33 µM; in the test on HL-60 it was 21.4 µM (inactive); in the test on HT-29, 22.8 µM (inactive); in the test with IGROV-1, 31.3 µM (inactive); with MDA-MB-231 it was 19.7 µM (inactive); with OVCAR-5, 25.1 µM (inactive). Besides, the GI50 is 24.7 µM (inactive) in the test on SF-268; 44.5 µM (inactive) in the test on SK-MEL-28; 21 µM (inactive) in the test on SK-MEL-2; 17.6 µM (inactive) in the test with SK-MEL-5; 23.7 µM (inactive) with SN12C; 34.3 µM (inactive) in the test on SNB-19. Further, the GI50 in the test with UACC-62 is 17.7 µM (inactive).
